Cytotoxicity data for 37 molecules are collected here from ChEMBL document CHEMBL3507680, “University of Dundee, Gates Library screen for HepG2 cell viability”.

A short description of this series: Human HepG2 cell viability assay in 384 well format. Format: toxicity, cell-based. Also noted: dose 125 nL, time 70.5 hour; concentration not given beside the values. Particulars: HepG2 cells, read-out: Inhibition.

As to `CCCS(=O)(=O)NCC1OCCc2cn(CC3CCOCC3)nc21` (configuration not stated), the cytotoxicity at 70.5 h is 30.2%.

As to `Cc1cnc(N2CCC3(CC2)CC3C(=O)NCC2CC2)nc1` (configuration not stated), the cytotoxicity at 70.5 h worked out at 11.9%.

`COc1ccc(N2CCOCC3(CCCN(c4cnccn4)C3)C2)cc1` (configuration not stated): the cytotoxicity at 70.5 h was -1.59%.

Regarding `COCC1CN(Cc2ccoc2)Cc2cn(CC3CCCC3)nc21` (configuration not stated), the cytotoxicity at 70.5 h was -4.4%.

As to `O=S(=O)(C1CC1)N1CCC2(CC1)COC(COc1ccccn1)C2` (configuration not stated), the cytotoxicity at 70.5 h was -5.06%.

As for `CCS(=O)(=O)N1CCC2(CC1)CC(OCC1CC1)CO2` (configuration not stated), the cytotoxicity at 70.5 h was -7.89%.

On to `COCC1CN(Cc2ccoc2)Cc2cn(CC3CCOCC3)nc21` (configuration not stated), for which the cytotoxicity at 70.5 h is -9.14%.

On to `COc1ccc(N2CCCC3(C2)CN(c2ncccn2)CCO3)cc1` (configuration not stated), for which the cytotoxicity at 70.5 h is -2.45%.

In the case of `CCc1ccc(C(=O)N2CCCn3nnc(Cn4cccn4)c3C2)cc1`, the cytotoxicity at 70.5 h was -5.86%.

Take `O=S(=O)(C1CC1)N1CCOCC2(CN(c3ncccn3)CCO2)C1` (configuration not stated): the cytotoxicity at 70.5 h was -9.2%.

As to `O=C(NCc1ccccn1)[C@@H]1COC[C@H]2CNC[C@H]21`, the cytotoxicity at 70.5 h was -12.9%.

As for `O=S(=O)(C1CC1)N1CCC2(CC1)COC(COc1cccnc1)C2` (configuration not stated), the cytotoxicity at 70.5 h was -10.2%.

In the case of `CCOCC1CN(Cc2ccco2)Cc2ccnn2C1` (configuration not stated), the cytotoxicity at 70.5 h was -5.17%.

In the case of `CCC(CC)CN1C[C@@H]2OCCN(Cc3cnn(C)c3)[C@@H]2C1`, the cytotoxicity at 70.5 h is -3.01%.

Regarding `Cn1cc(CN2CCO[C@H]3CN(Cc4ccco4)C[C@H]32)cn1`, the cytotoxicity at 70.5 h is -2.62%.

Turning to `Cc1ccoc1C(=O)N1CCCC2(CCCN2S(C)(=O)=O)C1` (configuration not stated), the cytotoxicity at 70.5 h is -3.55%.

Consider `CS(=O)(=O)N1CCCC12CCCN(C(=O)c1ccc[nH]1)C2` (configuration not stated), for which the cytotoxicity at 70.5 h amounted to 9.82%.

For `c1cncc(COCC2CN(Cc3ccncc3)Cc3ccnn3C2)c1` (configuration not stated), the cytotoxicity at 70.5 h stood at 1.86%.

As for `CS(=O)(=O)N1CCCCC12CCN(C(=O)c1ccccc1)C2` (configuration not stated), the cytotoxicity at 70.5 h is -8.78%.

As to `c1cncc(CN2CCC3(CCCN(c4nncs4)C3)C2)c1` (configuration not stated), the cytotoxicity at 70.5 h was -7.53%.

Regarding `CN1CCN(C(=O)c2n[nH]c3c2CN(Cc2nccs2)CC3)CC1`, the cytotoxicity at 70.5 h is -12%.

For `O=S(=O)(C1CC1)N1CC[C@H](OCC2CC2)[C@@H]1Cc1cccnc1`, the cytotoxicity at 70.5 h was -4.98%.

`CN(C)C(=O)C1CCC2(CCN(Cc3cnn(C)c3)CC2)C1` (configuration not stated): the cytotoxicity at 70.5 h was -7.73%.

`Cc1noc(C)c1CN1C[C@H](OCC(=O)N(C)C)[C@H]2OCCC[C@H]21`: the cytotoxicity at 70.5 h is -6.96%.

Regarding `Cc1cccc(CN2C[C@@H]3OCCN(c4cnccn4)[C@@H]3C2)n1`, the cytotoxicity at 70.5 h was -4.63%.

With `O=C(c1cccnc1)N1CCOC2(COCCN(c3cncnc3)C2)C1` (configuration not stated), the cytotoxicity at 70.5 h is -9.01%.

For `Cc1noc(C)c1CN1C[C@H](OCC(=O)N(C)C)[C@H]2COC[C@H]21`, the cytotoxicity at 70.5 h is -6.89%.

As for `CN(C)S(=O)(=O)N1C[C@H]2CCC[C@@]2(COCc2cccnc2)C1`, the cytotoxicity at 70.5 h was -6.86%.

With `Cc1noc(C)c1CN1C[C@H](OCC2CC2)[C@H]2COC[C@H]21`, the cytotoxicity at 70.5 h is -7.4%.

Consider `COCC(=O)N1CCOC2(CCCN(c3cnccn3)C2)C1` (configuration not stated), for which the cytotoxicity at 70.5 h was -9.25%.

With `O=C(N1CCCC1)N1CC[C@H]2OCC[C@@]2(COc2ncccc2F)C1`, the cytotoxicity at 70.5 h was -1.3%.

As to `Fc1ccc(CN2CCC3(CCCN(c4nncs4)C3)C2)cc1` (configuration not stated), the cytotoxicity at 70.5 h is -2.74%.

In the case of `O=C(c1ncccn1)N1CC[C@H]2OCC[C@@]2(COc2ccccn2)C1`, the cytotoxicity at 70.5 h was -6.64%.

Regarding `c1coc(CN2Cc3ccnn3CC(COCC3CC3)C2)c1` (configuration not stated), the cytotoxicity at 70.5 h was -6.27%.

As to `O=C(NCc1ccccn1)[C@@H]1COC[C@H]2CN(c3ncccn3)C[C@H]21`, the cytotoxicity at 70.5 h was -6.07%.

As to `c1cncc(OCC2CC3(CCN(CC4CC4)CC3)CO2)c1` (configuration not stated), the cytotoxicity at 70.5 h is -10.5%.

For `Cc1nc(C)n(CC2CN(Cc3cccnc3)Cc3nccn3C2)n1` (configuration not stated), the cytotoxicity at 70.5 h is -1.38%.
